# Data as given in ChEMBL document CHEMBL3407349, “The discovery of Polo-like kinase 4 inhibitors: identification of (1R,2S).2-(3-((E).4-(((cis).2,6-dimethylmorpholino)methyl)styryl). 1H.indazol-6-yl)-5'-methoxyspiro[cyclopropane-1,3'-indolin]-2'-one (CFI-400945) as a potent, orally active antitumor agent” (J Med Chem, 2015).
# What was measured:
# [1] = AUC(infinity) in Sprague-Dawley rat at 5 mg/kg, po; assay type: ADME, organism-based; parameters: dose 5 mg/kg, route oral, time infinity; conditions: plasma
# [2] = target: T1, Cytochrome P450 1A2 (Homo sapiens, UniProt P05177); assay: Inhibition of CYP1A2 (unknown origin) by fluorescence assay; assay type: ADME
# T1 sequence (P05177 whole entry): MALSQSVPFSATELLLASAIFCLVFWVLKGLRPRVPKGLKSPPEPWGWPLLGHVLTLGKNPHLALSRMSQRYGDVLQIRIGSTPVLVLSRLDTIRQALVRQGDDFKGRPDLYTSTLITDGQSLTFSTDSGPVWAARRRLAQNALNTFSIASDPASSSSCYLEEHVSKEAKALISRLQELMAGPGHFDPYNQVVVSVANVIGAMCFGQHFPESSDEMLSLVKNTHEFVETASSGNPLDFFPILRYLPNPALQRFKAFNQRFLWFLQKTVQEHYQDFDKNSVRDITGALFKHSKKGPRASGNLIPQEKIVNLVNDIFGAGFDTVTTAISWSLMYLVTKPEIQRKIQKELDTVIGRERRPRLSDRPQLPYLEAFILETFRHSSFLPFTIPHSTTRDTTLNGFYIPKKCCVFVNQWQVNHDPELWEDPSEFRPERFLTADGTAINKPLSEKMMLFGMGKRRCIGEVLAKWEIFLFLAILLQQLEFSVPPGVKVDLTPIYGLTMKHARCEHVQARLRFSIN
# [3] = Half life in beagle dog at 1 mg/kg, iv; assay type: ADME, organism-based, Canis lupus familiaris; parameters: dose 1 mg/kg, route intravenous; conditions: in vivo
# [4] = Growth inhibition of human OVCAR3 cells after 5 days by SRB assay; assay type: functional; conditions: OVCAR-3, 120 h
# [5] = Growth inhibition of human CAL51 cells after 5 days by SRB assay; assay type: functional; conditions: CAL-51, 120 h
# [6] = Antitumor activity against human SW620 cells xenografted in CB-17 SCID mouse assessed as tumor growth inhibition at 9.4 mg/kg, po qd administered for 21 days; assay type: functional; conditions: SW-620, 504 h, read-out: TGI
# [7] = Antitumor activity against human HCT116 cells xenografted in athymic CD-1 nude mouse assessed as tumor growth inhibition at MTD, po qd administered 1-on/3-off schedule up to day 21; assay type: functional, HCT-116
# [8] = Toxicity in po dosed athymic CD-1 nude mouse xenografted with human HCT116 cells administered qd 1-on/3-off schedule up to day 21; assay type: organism-based, HCT-116; conditions: CD-1 athymic nude, in vivo
# [9] = test system: MCF7; assay: Growth inhibition of human MCF7 cells after 5 days by SRB assay; assay type: functional
# [10] = test system: HCC1954; assay: Growth inhibition of human HCC1954 cells after 5 days by SRB assay; assay type: functional; conditions: Homo sapiens, HCC1954, 120 h
# [11] = test system: MDA-MB-468; assay: Antitumor activity against human MDA-MB-468 cells xenografted in CB-17 SCID mouse assessed as tumor growth inhibition at 3 mg/kg, po qd administered for 21 days; assay type: functional; conditions: MDA-MB-468, 504 h, read-out: TGI
# [12] = Growth inhibition of human COLO205 cells after 5 days by SRB assay; assay type: functional; conditions: COLO 205, 120 h
# [13] = test system: MDA-MB-468; assay: Antitumor activity against human MDA-MB-468 cells xenografted in CB-17 SCID mouse assessed as tumor growth inhibition at 9.4 mg/kg, po qd administered for 21 days; assay type: functional; conditions: MDA-MB-468, 504 h, read-out: TGI
# [14] = Growth inhibition of human BT20 cells after 5 days by SRB assay; assay type: functional; conditions: BT-20, 120 h
# [15] = test system: A549; assay: Growth inhibition of human A549 cells after 5 days by SRB assay; assay type: functional; conditions: A549, 120 h
# [16] = Growth inhibition of human SKBR3 cells after 5 days by SRB assay; assay type: functional; conditions: SK-BR-3, 120 h
# [17] = test system: MDA-MB-468; assay: Growth inhibition of human MDA-MB-468 cells after 5 days by SRB assay; assay type: functional
# [18] = AUC(infinity) in beagle dog at 1 mg/kg, iv; assay type: ADME, organism-based, Canis lupus familiaris; parameters: time infinity, dose 1 mg/kg, route intravenous; conditions: plasma
# [19] = Half life in Sprague-Dawley rat at 1 mg/kg, iv; assay type: ADME, organism-based; parameters: dose 1 mg/kg, route intravenous; conditions: in vivo
# [20] = AUC(infinity) in Sprague-Dawley rat at 1 mg/kg, iv; assay type: ADME, organism-based; parameters: time infinity, dose 1 mg/kg, route intravenous; conditions: plasma
# [21] = test system: SW-620; assay: Growth inhibition of human SW620 cells after 5 days by SRB assay; assay type: functional; conditions: SW-620, 120 h
# [22] = Growth inhibition of human HCT116 cells after 5 days by SRB assay; assay type: functional; conditions: HCT-116, 120 h
# [23] = test system: A549; assay: Antitumor activity against human A549 cells xenografted in CB-17 SCID mouse assessed as tumor growth inhibition at 3 mg/kg, po qd administered for 21 days; assay type: functional; conditions: A549, 504 h, read-out: TGI
# [24] = AUC(infinity) in beagle dog at 5 mg/kg, po; assay type: ADME, organism-based, Canis lupus familiaris; parameters: time infinity, dose 5 mg/kg, route oral; conditions: plasma
# [25] = (§1) Growth inhibition of human HMEC cells after 5 days by SRB assay; assay type: cell-based; conditions: HMEC cells
# [26] = Oral bioavailability in Sprague-Dawley rat at 5 mg/kg; assay type: ADME, organism-based; conditions: in vivo
# [27] = test system: Mus musculus; assay: Toxicity in CB-17 SCID mouse xenografted with human MDA-MB-468 cells assessed as loss in body weight at 3 to 9.4 mg/kg, po qd administered for 21 days relative to control; assay type: organism-based; parameters: dose 3-9.4 mg/kg, route oral; conditions: in vivo, 504 h
# [28] = Cmax in athymic CD1 nude mouse at 25 mg/kg, po by LC/MS/MS analysis; assay type: ADME, organism-based; parameters: dose 25 mg/kg, route oral; conditions: in vivo
# [29] = Oral bioavailability in beagle dog at 5 mg/kg; assay type: ADME, organism-based, Canis lupus familiaris; conditions: in vivo
# [30] = test system: A549; assay: Antitumor activity against human A549 cells xenografted in CB-17 SCID mouse assessed as tumor growth inhibition at 9.4 mg/kg, po qd administered for 21 days; assay type: functional; conditions: A549, 504 h, read-out: TGI
# [31] = test system: MDA-MB-231; assay: Growth inhibition of human MDA-MB-231 cells after 5 days by SRB assay; assay type: functional
# [32] = Antitumor activity against human SW620 cells xenografted in CB-17 SCID mouse assessed as tumor growth inhibition at 3 mg/kg, po qd administered for 21 days; assay type: functional; conditions: SW-620, 504 h, read-out: TGI
# [33] = AUC in athymic CD1 nude mouse at 25 mg/kg, po by LC/MS/MS analysis; assay type: ADME, organism-based; parameters: dose 25 mg/kg, route oral; conditions: plasma
# [34] = test system: Mus musculus; assay: Toxicity in CB-17 SCID mouse xenografted with human MDA-MB-468 cells assessed as mortality at 3 to 9.4 mg/kg, po qd administered for 21 days; assay type: organism-based; parameters: dose 3-9.4 mg/kg, route oral; conditions: in vivo, 504 h
# [35] = target: Cytochrome P450 2D6 (Homo sapiens, UniProt P10635); assay: Inhibition of CYP2D6 (unknown origin) by fluorescence assay; assay type: ADME
# [36] = Half life in human liver microsomes
# [37] = target: T2, Cytochrome P450 3A4 (Homo sapiens, UniProt P08684); assay: Inhibition of CYP3A4 (unknown origin) using BFC as substrate by fluorescence assay
# [38] = target: T2, Cytochrome P450 3A4; assay: Inhibition of CYP3A4 (unknown origin) using DBF as substrate by fluorescence assay
# [39] = test system: HMEC; assay: as §1; assay type: cell-based; conditions: hmec, 120 h
# [40] = target: Cytochrome P450 2C19 (Homo sapiens, UniProt P33261); assay: Inhibition of CYP2C19 (unknown origin) by fluorescence assay
# [41] = test system: Mus musculus; assay: Toxicity in CB-17 SCID mouse xenografted with human A549 cells assessed as death at 9.4 mg/kg, po qd administered for 21 days; assay type: organism-based; parameters: dose 9.4 mg/kg, route oral; conditions: in vivo, 504 h
# [42] = Half life in dog liver microsomes; conditions: microsomes
# [43] = Half life in mouse liver microsomes; conditions: microsomes
# [44] = target: Cytochrome P450 2C9 (Homo sapiens, UniProt P11712); assay: Inhibition of CYP2C9 (unknown origin) by fluorescence assay
# [45] = Half life in rat liver microsomes; conditions: microsomes
# [46] = Homo sapiens, MDA-MB-468, 120 h
# [47] = Homo sapiens, MDA-MB-231, 120 h
# Cytochrome P450 2D6, sequence (P10635 whole entry): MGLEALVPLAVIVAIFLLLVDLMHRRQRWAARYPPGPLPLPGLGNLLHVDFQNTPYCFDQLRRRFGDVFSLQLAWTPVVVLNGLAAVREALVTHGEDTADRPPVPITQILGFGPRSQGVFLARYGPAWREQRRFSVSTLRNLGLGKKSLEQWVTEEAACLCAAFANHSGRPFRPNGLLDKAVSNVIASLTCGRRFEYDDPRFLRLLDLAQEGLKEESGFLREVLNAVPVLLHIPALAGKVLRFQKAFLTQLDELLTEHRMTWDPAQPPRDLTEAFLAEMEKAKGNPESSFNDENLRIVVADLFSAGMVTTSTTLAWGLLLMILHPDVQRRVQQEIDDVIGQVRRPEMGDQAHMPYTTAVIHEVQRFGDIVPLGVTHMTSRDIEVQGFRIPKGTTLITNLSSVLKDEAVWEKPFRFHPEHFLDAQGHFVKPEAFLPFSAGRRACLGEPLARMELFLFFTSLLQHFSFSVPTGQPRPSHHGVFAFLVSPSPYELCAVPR
# T2 sequence (P08684 whole entry): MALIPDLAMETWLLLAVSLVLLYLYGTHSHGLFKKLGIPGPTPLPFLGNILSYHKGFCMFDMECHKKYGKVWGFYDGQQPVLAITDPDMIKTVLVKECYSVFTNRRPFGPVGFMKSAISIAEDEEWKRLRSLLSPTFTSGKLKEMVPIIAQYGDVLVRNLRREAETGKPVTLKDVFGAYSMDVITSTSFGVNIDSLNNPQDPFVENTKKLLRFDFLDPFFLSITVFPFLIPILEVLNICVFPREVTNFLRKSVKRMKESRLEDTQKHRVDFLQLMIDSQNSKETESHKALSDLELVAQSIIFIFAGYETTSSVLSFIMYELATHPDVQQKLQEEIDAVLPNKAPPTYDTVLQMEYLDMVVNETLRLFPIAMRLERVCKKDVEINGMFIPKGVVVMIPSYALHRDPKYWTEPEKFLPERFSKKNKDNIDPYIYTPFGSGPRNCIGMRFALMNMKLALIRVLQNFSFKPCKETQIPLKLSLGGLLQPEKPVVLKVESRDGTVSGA
# Cytochrome P450 2C19, sequence (P33261 whole entry): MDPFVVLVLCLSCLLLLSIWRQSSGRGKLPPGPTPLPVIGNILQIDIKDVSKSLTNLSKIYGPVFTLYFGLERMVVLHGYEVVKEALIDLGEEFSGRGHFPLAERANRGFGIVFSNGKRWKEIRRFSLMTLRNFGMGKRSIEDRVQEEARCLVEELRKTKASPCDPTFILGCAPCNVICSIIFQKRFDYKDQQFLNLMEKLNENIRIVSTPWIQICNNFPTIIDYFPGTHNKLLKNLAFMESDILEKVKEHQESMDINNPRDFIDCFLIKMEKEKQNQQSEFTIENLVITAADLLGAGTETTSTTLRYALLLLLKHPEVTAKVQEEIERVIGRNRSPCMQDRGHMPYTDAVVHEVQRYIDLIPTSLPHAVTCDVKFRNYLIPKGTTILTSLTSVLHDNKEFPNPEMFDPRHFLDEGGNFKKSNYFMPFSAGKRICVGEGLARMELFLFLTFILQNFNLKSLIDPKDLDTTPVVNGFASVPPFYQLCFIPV
# Cytochrome P450 2C9, sequence (P11712 whole entry): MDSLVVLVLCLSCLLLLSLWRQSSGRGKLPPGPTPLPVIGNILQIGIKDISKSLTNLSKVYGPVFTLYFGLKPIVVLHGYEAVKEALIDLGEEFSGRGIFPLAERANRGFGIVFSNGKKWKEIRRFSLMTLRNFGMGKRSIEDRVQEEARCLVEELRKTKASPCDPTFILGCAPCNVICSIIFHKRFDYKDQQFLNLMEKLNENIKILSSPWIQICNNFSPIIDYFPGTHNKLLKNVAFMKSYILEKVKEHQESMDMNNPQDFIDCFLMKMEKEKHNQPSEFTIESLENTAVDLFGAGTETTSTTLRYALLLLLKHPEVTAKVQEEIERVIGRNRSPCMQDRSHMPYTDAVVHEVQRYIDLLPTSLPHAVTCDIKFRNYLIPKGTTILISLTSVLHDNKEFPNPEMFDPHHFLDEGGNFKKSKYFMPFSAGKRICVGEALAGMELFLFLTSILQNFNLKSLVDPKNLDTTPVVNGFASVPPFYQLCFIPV
smiles,measurement,setting,value
C[C@@H]1CN(Cc2ccc(/C=C/c3n[nH]c4cc([C@@H]5C[C@@]56C(=O)Nc5ccccc56)ccc34)cc2)C[C@H](C)O1,AUC(0-inf),[1],2810 ng·h/mL
same,inhibition (INH),[2],Not Active
same,half-life,[3],4.5 h
same,GI50,[4],0.015 µM
same,GI50,[5],0.091 µM
same,inhibition in vivo at 9.4 mg/kg,[6],80%
same,TGI,[7],78%
same,MTD at 21 days,[8],36 mg/kg
same,GI50,"[9]; Homo sapiens, MCF7, 120 h",0.017 µM
same,GI50,[10],0.008 µM
same,inhibition in vivo at 3 mg/kg,[11],45%
same,GI50,[12],0.057 µM
same,inhibition in vivo at 9.4 mg/kg,[13],90%
same,GI50,[14],0.09 µM
same,GI50,[15],0.009 µM
same,GI50,[16],7.2 µM
same,GI50,[17]; [46],0.01 µM
same,AUC(0-inf),[18],2050 ng·h/mL
same,half-life,[19],3.9 h
same,AUC(0-inf),[20],1230 ng·h/mL
same,GI50,[21],0.35 µM
same,GI50,[22],0.008 µM
same,inhibition in vivo at 3 mg/kg,[23],44%
same,AUC(0-inf),[24],4990 ng·h/mL
same,GI50 at 120 h,[25],8.4 µM
same,bioavailability,[26],46%
same,Activity,[27],> 20%
same,Cmax,[28],3700 ng/mL
same,bioavailability,[29],49%
same,inhibition in vivo at 9.4 mg/kg,[30],79%
same,GI50,[31]; [47],6.5 µM
same,inhibition in vivo at 3 mg/kg,[32],57%
same,AUC,[33],10000 ng·h/mL
same,Activity,[34],Non-toxic
same,inhibition (INH),[35],Not Active
CN(C)Cc1ccc(/C=C/c2n[nH]c3cc([C@@H]4C[C@@]45C(=O)Nc4ccccc45)ccc23)cc1,inhibition (INH),[2],Not Active
same,half-life,[36]; liver microsomes,> 1 h
same,GI50,[9],0.25 µM
same,IC50,[37],5 µM
same,GI50,[17],< 0.001 µM
same,IC50,[38],10 µM
same,GI50,[39],19 µM
same,Cmax,[28],110 ng/mL
same,GI50,[31],0.82 µM
same,AUC,[33],260 ng·h/mL
same,inhibition (INH),[35],Not Active
COc1ccc2c(c1)[C@]1(C[C@H]1c1ccc3c(/C=C/c4ccc(CN5CCOCC5)cc4)n[nH]c3c1)C(=O)N2C,AUC(0-inf),[1],688 ng·h/mL
same,inhibition (INH),[2],Not Active
same,half-life,[3],3 h
same,half-life,[36]; microsomes,0.617 h
same,IC50,[40],1 µM
same,GI50,[4],0.007 µM
same,Activity,[41],Toxic
same,half-life,[42],0.217 h
same,GI50,[5],0.11 µM
same,inhibition in vivo at 9.4 mg/kg,[6],77%
same,TGI,[7],90%
same,MTD at 21 days,[8],39 mg/kg
same,GI50,"[9]; Homo sapiens, MCF7, 120 h",< 0.01 µM
same,GI50,[10],< 0.01 µM
same,inhibition in vivo at 3 mg/kg,[11],61%
same,GI50,[12],0.007 µM
same,half-life,[43],0.4 h
same,inhibition in vivo at 9.4 mg/kg,[13],96%
same,GI50,[14],0.055 µM
same,GI50,[15],0.004 µM
same,GI50,[16],6.5 µM
same,IC50,[37],20 µM
same,GI50,[17]; [46],< 0.01 µM
same,AUC(0-inf),[18],648 ng·h/mL
same,half-life,[19],1.3 h
same,AUC(0-inf),[20],553 ng·h/mL
same,IC50,[44],1 µM
same,half-life,[45],6.4 min
same,GI50,[21],0.6 µM
same,IC50,[38],6 µM
same,GI50,[22],0.005 µM
same,inhibition in vivo at 3 mg/kg,[23],46%
same,AUC(0-inf),[24],1030 ng·h/mL
same,GI50 at 120 h,[25],> 30 µM
same,bioavailability,[26],25%
same,Cmax,[28],5900 ng/mL
same,bioavailability,[29],32%
same,GI50,[31]; [47],20 µM
same,inhibition in vivo at 3 mg/kg,[32],47%
same,AUC,[33],17000 ng·h/mL
same,inhibition (INH),[35],Not Active
